Data from PMC8620908, “Design, Synthesis, In Vitro Anticancer Evaluation and Molecular Modelling Studies of 3,4,5-Trimethoxyphenyl-Based Derivatives as Dual EGFR/HDAC Hybrid Inhibitors” (Pharmaceuticals, 2021).
Like-named read-outs stand apart in the source and are kept apart here.

Key:
[1] = test system: Caspase-3; assay: Caspase-3 level assay in HepG2 cancer cell line; assay type: cell-based, human
[2] = test system: Bax; assay: Bax level assay in HepG2 cancer cell line; assay type: cell-based; details: HepG2 cancer cell line
[3] = test system: Caspase-8; assay: Caspase-8 level assay in HepG2 cancer cell line; assay type: cell-based, human; details: HepG2 cancer cell line
[4] = test system: A549; assay: Antiproliferative MTT assay, A549; details: Homo sapiens, A549, read-out: Antiproliferative Activity IC50 ± SEM, A549
[5] = test system: HepG2; assay: Antiproliferative MTT assay, HepG2; details: Homo sapiens, HepG2, read-out: Antiproliferative Activity IC50 ± SEM, HepG2
[6] = test system: HCT116; assay: Antiproliferative MTT assay, HCT116; details: Homo sapiens, HCT-116, read-out: Antiproliferative Activity IC50 ± SEM, HCT116
[7] = test system: MCF-7; assay: Antiproliferative MTT assay, MCF-7; details: Homo sapiens, MCF7, read-out: Antiproliferative Activity IC50 ± SEM, MCF-7
[8] = biological target: HDAC2 (Homo sapiens, UniProt Q92769); assay: In vitro HDAC inhibition assay, HDAC2
[9] = biological target: HDAC1 (Homo sapiens, UniProt Q13547); assay: In vitro HDAC inhibition assay, HDAC1
[10] = biological target: T1, HDAC6 (Homo sapiens, UniProt Q9UBN7); assay: In vitro HDAC inhibition assay, HDAC6
T1 sequence (Q9UBN7 1-1215): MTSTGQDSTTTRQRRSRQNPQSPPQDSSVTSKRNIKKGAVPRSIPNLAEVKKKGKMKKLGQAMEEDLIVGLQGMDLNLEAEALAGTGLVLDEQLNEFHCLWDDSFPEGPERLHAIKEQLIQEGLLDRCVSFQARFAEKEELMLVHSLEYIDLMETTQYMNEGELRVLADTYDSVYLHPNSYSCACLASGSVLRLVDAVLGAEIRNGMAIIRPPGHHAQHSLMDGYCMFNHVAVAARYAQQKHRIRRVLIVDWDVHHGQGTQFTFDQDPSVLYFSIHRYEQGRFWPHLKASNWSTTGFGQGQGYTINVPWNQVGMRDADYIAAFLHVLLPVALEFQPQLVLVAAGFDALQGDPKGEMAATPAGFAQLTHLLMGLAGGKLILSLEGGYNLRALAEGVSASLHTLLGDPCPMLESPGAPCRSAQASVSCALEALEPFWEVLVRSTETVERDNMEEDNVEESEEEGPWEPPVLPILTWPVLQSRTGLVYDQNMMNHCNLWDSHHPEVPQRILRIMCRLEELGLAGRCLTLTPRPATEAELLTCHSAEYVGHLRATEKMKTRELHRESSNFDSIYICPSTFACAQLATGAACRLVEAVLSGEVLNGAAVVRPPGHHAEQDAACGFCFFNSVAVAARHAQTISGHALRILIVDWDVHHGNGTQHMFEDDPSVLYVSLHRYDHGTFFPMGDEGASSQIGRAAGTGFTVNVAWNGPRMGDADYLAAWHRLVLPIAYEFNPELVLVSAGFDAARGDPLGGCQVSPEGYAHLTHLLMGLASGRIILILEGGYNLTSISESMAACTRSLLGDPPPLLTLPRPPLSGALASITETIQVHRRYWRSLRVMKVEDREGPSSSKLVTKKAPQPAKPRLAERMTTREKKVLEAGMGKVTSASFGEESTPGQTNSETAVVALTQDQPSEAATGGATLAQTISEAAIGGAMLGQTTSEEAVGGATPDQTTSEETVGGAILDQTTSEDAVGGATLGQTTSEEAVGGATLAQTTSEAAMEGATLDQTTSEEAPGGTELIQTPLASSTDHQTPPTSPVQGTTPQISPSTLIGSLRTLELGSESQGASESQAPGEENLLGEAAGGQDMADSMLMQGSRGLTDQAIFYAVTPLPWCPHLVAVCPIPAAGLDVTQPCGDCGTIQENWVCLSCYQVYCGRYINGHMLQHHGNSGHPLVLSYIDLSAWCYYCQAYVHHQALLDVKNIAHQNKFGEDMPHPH

[11] = biological target: EGFR (Homo sapiens, UniProt P00533); assay: EGFR-TK inhibition, cell-free assay; assay type: biochemical
[12] = biological target: HDAC4 (Homo sapiens, UniProt P56524); assay: In vitro HDAC inhibition assay, HDAC4
[13] = biological target: T2, HDAC8 (Homo sapiens, UniProt Q9BY41); assay: In vitro HDAC inhibition assay, HDAC8
T2 sequence (Q9BY41 1-377): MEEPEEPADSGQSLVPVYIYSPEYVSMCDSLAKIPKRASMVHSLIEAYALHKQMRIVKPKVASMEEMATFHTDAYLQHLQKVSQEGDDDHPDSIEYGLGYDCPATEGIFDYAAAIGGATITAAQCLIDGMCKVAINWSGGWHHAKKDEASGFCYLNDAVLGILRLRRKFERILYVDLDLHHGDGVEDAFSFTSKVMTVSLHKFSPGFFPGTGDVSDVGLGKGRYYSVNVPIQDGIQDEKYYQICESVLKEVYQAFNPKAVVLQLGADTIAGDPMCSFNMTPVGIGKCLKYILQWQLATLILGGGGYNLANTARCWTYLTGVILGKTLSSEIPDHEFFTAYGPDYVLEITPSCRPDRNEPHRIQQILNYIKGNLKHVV

Chain of HDAC1 (Q13547 whole entry): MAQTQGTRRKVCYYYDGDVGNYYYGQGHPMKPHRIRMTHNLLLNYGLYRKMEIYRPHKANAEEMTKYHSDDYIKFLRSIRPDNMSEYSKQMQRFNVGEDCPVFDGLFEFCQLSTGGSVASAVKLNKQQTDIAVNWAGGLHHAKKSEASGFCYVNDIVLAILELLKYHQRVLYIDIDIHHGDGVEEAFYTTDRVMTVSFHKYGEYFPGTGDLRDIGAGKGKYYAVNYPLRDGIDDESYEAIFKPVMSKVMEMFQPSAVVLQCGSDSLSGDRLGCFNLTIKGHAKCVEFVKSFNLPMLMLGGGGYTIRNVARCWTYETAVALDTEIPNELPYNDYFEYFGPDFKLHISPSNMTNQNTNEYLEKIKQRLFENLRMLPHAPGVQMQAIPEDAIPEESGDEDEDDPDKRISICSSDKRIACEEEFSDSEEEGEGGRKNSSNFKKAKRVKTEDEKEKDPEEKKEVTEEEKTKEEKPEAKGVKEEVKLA
Chain of EGFR (P00533 25-1210): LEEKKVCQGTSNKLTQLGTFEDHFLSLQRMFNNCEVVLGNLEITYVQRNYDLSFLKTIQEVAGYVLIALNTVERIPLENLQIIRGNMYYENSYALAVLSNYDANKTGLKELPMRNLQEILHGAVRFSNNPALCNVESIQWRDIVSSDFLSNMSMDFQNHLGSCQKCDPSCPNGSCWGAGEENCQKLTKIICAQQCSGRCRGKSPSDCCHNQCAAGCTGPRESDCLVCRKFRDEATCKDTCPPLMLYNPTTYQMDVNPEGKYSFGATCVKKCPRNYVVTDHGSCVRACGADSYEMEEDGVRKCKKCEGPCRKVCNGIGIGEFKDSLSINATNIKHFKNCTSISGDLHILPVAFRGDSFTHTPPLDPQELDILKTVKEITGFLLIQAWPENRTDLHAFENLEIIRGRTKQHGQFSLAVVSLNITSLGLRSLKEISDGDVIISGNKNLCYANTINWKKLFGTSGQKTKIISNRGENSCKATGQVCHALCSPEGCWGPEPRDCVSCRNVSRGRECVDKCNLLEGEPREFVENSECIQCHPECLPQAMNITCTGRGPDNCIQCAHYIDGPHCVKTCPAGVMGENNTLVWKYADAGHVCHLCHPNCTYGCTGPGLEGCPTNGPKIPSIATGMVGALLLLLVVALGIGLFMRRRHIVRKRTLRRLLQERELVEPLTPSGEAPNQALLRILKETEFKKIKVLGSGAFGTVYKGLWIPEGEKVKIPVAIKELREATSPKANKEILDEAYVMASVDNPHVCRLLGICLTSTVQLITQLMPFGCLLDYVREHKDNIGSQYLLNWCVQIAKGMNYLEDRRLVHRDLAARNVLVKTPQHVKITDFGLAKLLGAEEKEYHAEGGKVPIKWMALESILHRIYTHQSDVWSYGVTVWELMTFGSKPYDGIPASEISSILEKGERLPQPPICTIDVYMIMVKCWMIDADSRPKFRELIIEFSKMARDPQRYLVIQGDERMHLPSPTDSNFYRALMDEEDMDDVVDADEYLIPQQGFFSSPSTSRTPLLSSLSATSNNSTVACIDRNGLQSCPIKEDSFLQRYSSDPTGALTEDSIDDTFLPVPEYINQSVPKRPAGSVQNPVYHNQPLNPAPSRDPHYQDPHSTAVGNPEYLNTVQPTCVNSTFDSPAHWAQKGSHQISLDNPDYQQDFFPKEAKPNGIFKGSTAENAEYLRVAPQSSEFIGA
Chain of HDAC4 (P56524 whole entry): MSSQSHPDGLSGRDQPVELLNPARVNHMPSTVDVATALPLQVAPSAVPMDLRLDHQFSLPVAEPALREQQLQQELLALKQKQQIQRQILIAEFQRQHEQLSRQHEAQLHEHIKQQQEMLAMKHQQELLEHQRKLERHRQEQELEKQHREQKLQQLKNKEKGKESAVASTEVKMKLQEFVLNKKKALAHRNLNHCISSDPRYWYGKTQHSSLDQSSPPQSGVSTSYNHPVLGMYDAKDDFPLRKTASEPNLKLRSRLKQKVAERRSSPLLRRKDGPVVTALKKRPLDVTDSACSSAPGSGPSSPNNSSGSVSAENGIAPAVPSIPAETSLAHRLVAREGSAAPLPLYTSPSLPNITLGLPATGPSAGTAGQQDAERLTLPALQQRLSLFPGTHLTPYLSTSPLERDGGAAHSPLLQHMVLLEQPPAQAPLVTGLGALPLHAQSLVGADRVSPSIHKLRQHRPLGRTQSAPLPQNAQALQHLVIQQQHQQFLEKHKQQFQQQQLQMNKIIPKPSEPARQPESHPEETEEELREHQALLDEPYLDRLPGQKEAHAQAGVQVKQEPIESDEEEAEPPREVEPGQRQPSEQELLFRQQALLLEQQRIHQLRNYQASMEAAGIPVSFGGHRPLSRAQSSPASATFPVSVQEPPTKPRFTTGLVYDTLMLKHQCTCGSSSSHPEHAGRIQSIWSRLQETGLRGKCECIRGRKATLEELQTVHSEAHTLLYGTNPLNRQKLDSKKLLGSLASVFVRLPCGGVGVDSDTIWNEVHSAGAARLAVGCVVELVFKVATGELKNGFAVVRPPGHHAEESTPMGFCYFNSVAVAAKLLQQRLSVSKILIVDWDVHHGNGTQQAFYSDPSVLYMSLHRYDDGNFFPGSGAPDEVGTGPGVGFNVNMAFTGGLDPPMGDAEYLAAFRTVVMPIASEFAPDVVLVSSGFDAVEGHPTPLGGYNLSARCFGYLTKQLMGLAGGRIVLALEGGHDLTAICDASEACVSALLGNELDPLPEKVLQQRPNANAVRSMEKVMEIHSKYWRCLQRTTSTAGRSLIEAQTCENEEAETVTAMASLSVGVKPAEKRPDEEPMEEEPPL
Chain of HDAC2 (Q92769 whole entry): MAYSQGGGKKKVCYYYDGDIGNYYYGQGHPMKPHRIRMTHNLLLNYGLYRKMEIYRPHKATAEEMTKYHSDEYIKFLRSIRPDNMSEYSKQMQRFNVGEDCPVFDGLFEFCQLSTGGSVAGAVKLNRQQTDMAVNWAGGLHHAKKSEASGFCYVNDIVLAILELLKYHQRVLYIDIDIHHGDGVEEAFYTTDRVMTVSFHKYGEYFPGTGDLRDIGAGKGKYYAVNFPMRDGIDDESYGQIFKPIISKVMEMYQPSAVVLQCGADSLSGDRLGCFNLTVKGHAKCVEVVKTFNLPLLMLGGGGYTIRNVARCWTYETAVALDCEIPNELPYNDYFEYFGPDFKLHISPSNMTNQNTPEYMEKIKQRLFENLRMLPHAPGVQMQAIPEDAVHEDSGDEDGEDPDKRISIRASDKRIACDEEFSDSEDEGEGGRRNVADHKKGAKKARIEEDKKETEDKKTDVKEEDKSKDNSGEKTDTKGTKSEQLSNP

Row | SMILES | IC50 [4] | IC50 [5] | IC50 [6] | melting point | IC50 [7] | IC50 [8] | IC50 [9] | IC50 [10] | IC50 [11] | IC50 [12] | IC50 [13] | Caspase-3 Conc [1] | Caspase-3 Conc ([1]; listed as staurosporine) | Bax Conc [2] | Bax Conc ([2]; listed as staurosporine) | Caspase-8 Conc [3] | Caspase-8 Conc ([3]; listed as staurosporine)
1 | CN[C@@H]1C[C@H]2O[C@@](C)([C@@H]1OC)n1c3ccccc3c3c4c(c5c6ccccc6n2c5c31)C(=O)NC4 [Staurosporine, reference compound] | – | – | – | – | – | – | – | – | – | – | – | 445.9 ± 15.39 pg/mL | 445.9 pg/mL | 362.2 ± 9.61 pg/mL | 362.2 pg/mL | 1.343 ± 0.026 ng/mL | 1.343 ng/mL
2 | COc1cc(/C=C/C(=O)c2ccc(OCCCCC(=O)O)cc2)cc(OC)c1OC [2a, (E)-5-(4-(3-(3,4,5-Trimethoxyphenyl)Acryloyl)Phenoxy)Pentanoic Acid] | 44.4 ± 2.39 µM | 88.4 ± 4.76 µM | 40.1 ± 2.16 µM | 102 to 105 °C | 59.9 ± 3.23 µM | – | – | – | – | – | – | – | – | – | – | – | –
3 | COc1cc(/C=C/C(=O)c2ccc(OCCCCCC(=O)O)cc2)cc(OC)c1OC [2b, (E)-6-(4-(3-(3,4,5-Trimethoxyphenyl)Acryloyl)Phenoxy)Hexanoic Acid] | 33.7 ± 1.82 µM | 30.4 ± 1.64 µM | 23.7 ± 1.28 µM | 138 to 140 °C | 39.4 ± 2.12 µM | – | – | – | – | – | – | – | – | – | – | – | –
4 | COc1cc(-c2cc(-c3ccc(OCCCCCC(=O)O)cc3)[nH]c(=O)c2C#N)cc(OC)c1OC [3b, 6-(4-(5-Cyano-6-Oxo-4-(3,4,5-Trimethoxyphenyl)-1,6-Dihydropyridin-2-yl)Phenoxy) Hexanoic Acid] | 15.3 ± 0.82 µM | 16.2 ± 0.87 µM | 15.7 ± 0.85 µM | – | 12.2 ± 0.65 µM | – | – | – | – | – | – | – | – | – | – | – | –
5 | COc1cc(/C=C/C(=O)c2ccc(OCCCCCCC(=O)O)cc2)cc(OC)c1OC [2c, (E)-7-(4-(3-(3,4,5-Trimethoxyphenyl)Acryloyl)Phenoxy)Heptanoic Acid] | 22.7 ± 1.22 µM | 17.1 ± 0.92 µM | 16.5 ± 0.89 µM | 112 to 115 °C | 14.8 ± 0.8 µM | – | – | – | – | – | – | – | – | – | – | – | –
6 | COc1cc(-c2cc(-c3ccc(OCCCCC(=O)O)cc3)[nH]c(=O)c2C#N)cc(OC)c1OC [3a, 5-(4-(5-Cyano-6-Oxo-4-(3,4,5-Trimethoxyphenyl)-1,6-Dihydropyridin-2-yl)Phenoxy)Pentanoic Acid] | 31 ± 1.67 µM | 65.8 ± 3.55 µM | 23.5 ± 1.27 µM | 224 to 228 °C | 46.4 ± 2.54 µM | – | – | – | – | – | – | – | – | – | – | – | –

Continued, in another order:

Row | IC50 [4] | IC50 [5] | IC50 [6] | melting point | IC50 [7] | IC50 [8] | IC50 [9] | IC50 [10] | IC50 [11] | IC50 [12] | IC50 [13] | SMILES | Caspase-3 Conc [1] | Caspase-3 Conc ([1]; listed as staurosporine) | Bax Conc [2] | Bax Conc ([2]; listed as staurosporine) | Caspase-8 Conc [3] | Caspase-8 Conc ([3]; listed as staurosporine)
7 | 2.3 ± 0.12 µM | 3.46 ± 0.19 µM | 4.67 ± 0.25 µM | 232 to 238 °C | 4.89 ± 0.26 µM | 0.256 µM | 0.051 µM | 0.222 µM | 0.214 ± 0.004 µM | 17.5 µM | 19.6 µM | COc1cc(-c2cc(-c3ccc(OCCCCC(=O)NO)cc3)[nH]c(=O)c2C#N)cc(OC)c1OC [5a, 5-(4-(5-Cyano-6-Oxo-4-(3,4,5-Trimethoxyphenyl)-1,6-Dihydropyridin-2-yl)Phenoxy)-N-Hydroxypentanamide] | – | – | – | – | – | –
8 | 21.3 ± 1.15 µM | 21.1 ± 1.14 µM | 13.9 ± 0.75 µM | 168 to 170 °C | 23.7 ± 1.28 µM | – | – | – | – | – | – | COc1cc(-c2cc(-c3ccc(OCCCCCCC(=O)O)cc3)[nH]c(=O)c2C#N)cc(OC)c1OC [3c, 7-(4-(5-Cyano-6-Oxo-4-(3,4,5-Trimethoxyphenyl)-1,6-Dihydropyridin-2-yl)Phenoxy) Heptanoic Acid] | – | – | – | – | – | –
9 | 1.93 ± 0.14 µM | 2.54 ± 0.14 µM | 1.59 ± 0.09 µM | 122 to 128 °C | 1.18 ± 0.06 µM | 0.277 µM | 0.07 µM | 0.113 µM | 0.091 ± 0.001 µM | 8.72 µM | 5.02 µM | COc1cc(/C=C/C(=O)c2ccc(OCCCCCCC(=O)NO)cc2)cc(OC)c1OC [4c, (E)-N-Hydroxy-7-(4-(3-(3,4,5-Trimethoxyphenyl)Acryloyl)Phenoxy)Heptanamide] | – | – | – | – | – | –
10 | 8.58 ± 0.46 µM | 27.6 ± 1.49 µM | 9.47 ± 0.51 µM | 170 to 176 °C | 12.1 ± 0.65 µM | – | – | – | – | – | – | COc1cc(-c2cc(-c3ccc(OCCCCCCC(=O)NO)cc3)[nH]c(=O)c2C#N)cc(OC)c1OC [5c, 7-(4-(5-Cyano-6-Oxo-4-(3,4,5-Trimethoxyphenyl)-1,6-dihydropyridin-2-yl)phenoxy)-N-Hydroxyheptanamide] | – | – | – | – | – | –
11 | 2.07 ± 0.11 µM | 3.62 ± 0.2 µM | 3.21 ± 0.17 µM | 220 to 224 °C | 1.97 ± 0.11 µM | 0.119 µM | 0.121 µM | 0.086 µM | 0.111 ± 0.002 µM | 6.69 µM | 6.35 µM | COc1cc(/C=C/C(=O)c2ccc(OCCCCC(=O)NO)cc2)cc(OC)c1OC [4a, (E)-N-Hydroxy-5-(4-(3-(3,4,5-Trimethoxyphenyl)Acryloyl)Phenoxy) Pentanamide] | – | – | – | – | – | –
12 | 18.8 ± 1.01 µM | 28.3 ± 0.99 µM | 16.9 ± 3.71 µM | 198 to 204 °C | 19.6 ± 1.05 µM | – | – | – | – | – | – | COc1cc(-c2cc(-c3ccc(OCCCCCC(=O)NO)cc3)[nH]c(=O)c2C#N)cc(OC)c1OC [5b, 6-(4-(5-Cyano-6-Oxo-4-(3,4,5-Trimethoxyphenyl)-1,6-Dihydropyridin-2-yl)Phenoxy)-N-Hydroxyhexanamide] | – | – | – | – | – | –
